18 compounds from patent US7414072B2, “Aryl 5-thio-β-d-glucopyranoside derivatives and therapeutic agents for diabetes containing the same” (Taisho Pharmaceutical Co., Ltd., priority 2002, dated 2008) can be followed below.

Molecules are shown by their SMILES. “And” between values parts separate entries of the source, which are not always exact repeats. Equal values may be shown once.

One may read the melting point as the temperature of the solid-liquid transition. On to `CCc1ccc(Cc2ccccc2O[C@@H]2S[C@H](CO)[C@@H](O)[C@H](O)[C@H]2O)cc1` [Compound 1, 2′-(4′-ethylbenzyl)phenyl 5-thio-β-D-glucopyranoside], for which the melting point is 154 to 160 °C and 154 to 169 °C and 156.5 to 157.5 °C. In the case of `OC[C@H]1S[C@@H](Oc2ccccc2Cc2ccc(N3CCOCC3)cc2)[C@H](O)[C@@H](O)[C@@H]1O` [Compound 73, 2′-(4′-morpholinobenzyl)phenyl 5-thio-β-D-glucopyranoside] it was 174 to 176.5 °C; in that of `CC(C)(C)c1ccc(Cc2cc(Cl)ccc2O[C@@H]2S[C@H](CO)[C@@H](O)[C@H](O)[C@H]2O)cc1` [Compound 75, 2′-(4′-t-butylbenzyl)-4′-chlorophenyl 5-thio-β-D-glucopyranoside], 79 to 82.5 °C; in that of `Nc1ccc(Cc2cc(Cl)ccc2O[C@@H]2S[C@H](CO)[C@@H](O)[C@H](O)[C@H]2O)cc1` [Compound 42, 2′-(4′-aminobenzyl)-4′-chlorophenyl 5-thio-β-D-glucopyranoside], 206 to 208 °C. Next, `COC(=O)c1ccc(Cc2cc(Cl)ccc2O[C@@H]2S[C@H](CO)[C@@H](O)[C@H](O)[C@H]2O)cc1` [Compound 40, 4′-chloro-2′-(4′-methoxycarbonylbenzyl)phenyl 5-thio-β-D-glucopyranoside]: 74 to 76 °C; `OC[C@H]1S[C@@H](Oc2ccc(Cl)cc2Cc2ccccc2Cc2ccccc2)[C@H](O)[C@@H](O)[C@@H]1O` [Compound 79]: 150.5 to 151.5 °C; `OC[C@H]1S[C@@H](Oc2ccc(Cl)cc2Cc2cccc(F)c2)[C@H](O)[C@@H](O)[C@@H]1O` [Compound 61, 4′-chloro-2′-(3′-fluorobenzyl)phenyl 5-thio-β-D-glucopyranoside]: 182 to 183 °C.

As to `CS(=O)(=O)Nc1ccc(Cc2cc(Cl)ccc2O[C@@H]2S[C@H](CO)[C@@H](O)[C@H](O)[C@H]2O)cc1` [Compound 51, 4′-chloro-2′-(4′-methylsulfonylaminobenzyl)phenyl 5-thio-β-D-glucopyranoside], the melting point was 151 to 153 °C.

`OC[C@H]1S[C@@H](Oc2c(Cc3c(F)cccc3Cl)cc(Cl)cc2Cc2c(F)cccc2Cl)[C@H](O)[C@@H](O)[C@@H]1O` [Compound 53] registered a melting point of 112 to 118 °C. In the case of `O=C(Nc1ccccc1)c1cc2ccccc2cc1O[C@@H]1S[C@H](CO)[C@@H](O)[C@H](O)[C@H]1O` [Compound 92] it was 200 to 202 °C; in that of `CCc1ccc(Cc2c(O)cccc2O[C@@H]2S[C@H](CO)[C@@H](O)[C@H](O)[C@H]2O)cc1` [Compound 14, 2′-(4′-ethylbenzyl)-3′-hydroxyphenyl 5-thio-β-D-glucopyranoside], 238 to 242.5 °C; in that of `OC[C@H]1S[C@@H](Oc2ccc(Cl)cc2Cc2cccc(OC(F)(F)F)c2)[C@H](O)[C@@H](O)[C@@H]1O` [Compound 69, 4′-chloro-2′-(3′-trifluoromethoxybenzyl)phenyl 5-thio-β-D-glucopyranoside], 146 to 148 °C. Take `CCc1ccc(Cc2cc(C(=O)OC)ccc2O[C@@H]2S[C@H](CO)[C@@H](O)[C@H](O)[C@H]2O)cc1` [Compound 15, 2′-(4′-ethylbenzyl)-4′-methoxycarbonylphenyl 5-thio-β-D-glucopyranoside]: the melting point lay in the range of 196 to 198 °C. Next, `OC[C@H]1S[C@@H](Oc2ccc(Cl)cc2Cc2ccccc2CCc2ccccc2)[C@H](O)[C@@H](O)[C@@H]1O` [Compound 78]: 128 to 130 °C.

The compound `OC[C@H]1S[C@@H](Oc2ccccc2Cc2ccc(-n3cccn3)cc2)[C@H](O)[C@@H](O)[C@@H]1O` [Compound 43, 2′-(4′-pyrazol-1′-ylbenzyl)phenyl 5-thio-β-D-glucopyranoside] yielded a melting point of 208 to 210 °C. Next, `CC(C)c1ccc(Cc2cc(Cl)ccc2O[C@@H]2S[C@H](CO)[C@@H](O)[C@H](O)[C@H]2O)cc1` [Compound 63, 4′-chloro-2′-(4′-isopropylbenzyl)phenyl 5-thio-β-D-glucopyranoside]: 146 to 148.5 °C. Next, `OC[C@H]1S[C@@H](Nc2ccccc2Cc2ccccc2)[C@H](O)[C@@H](O)[C@@H]1O` [Compound 35]: 144 to 151 °C. In the case of `OC[C@H]1S[C@@H](Oc2ccc(Cl)cc2Cc2cc(F)cc(C(F)(F)F)c2)[C@H](O)[C@@H](O)[C@@H]1O` [Compound 76, 4′-chloro-2′-(3′-fluoro-5′-trifluoromethylbenzyl)phenyl 5-thio-β-D-glucopyranoside] it was 126 to 129 °C.
